Test results reported in patent US20080021049A1, “Treatment Of Diet-Related Conditions Using Phospholipase-A2 Inhibitors Comprising Indoles And Related Compounds” (priority 2004, published 2008).
Where two headings read alike, the source gives them in different places. One block for each compound: values may come before it.

Experiments:
[1] = molecular target: porcine pancreatic secreted PLA2 (pps PLA2) (Sus scrofa, UniProt P00592); conditions: reported literature data; cited from earlier work
[2] = molecular target: human pancreatic secreted PLA2 (hps PLA2) (Homo sapiens, UniProt P04054); conditions: reported literature data; cited from earlier work
Chain of human pancreatic secreted PLA2 (hps PLA2) (P04054 23-148): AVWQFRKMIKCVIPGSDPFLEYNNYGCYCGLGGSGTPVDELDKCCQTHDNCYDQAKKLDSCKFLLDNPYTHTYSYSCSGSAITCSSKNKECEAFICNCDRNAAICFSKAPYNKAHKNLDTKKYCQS

[3] = molecular target: human PLA2 IB enzyme (Homo sapiens, UniProt P04054); conditions: pyrene substrate release from vesicles (Singer, Ghomashchi et al. 2002); read-out: IC50 versus the human PLA2 IB enzyme; cited from earlier work
Chain of human PLA2 IB enzyme (P04054 23-148): as above

[4] = assay type: in vivo, mice; conditions: for body weight gain compared to wild-type control group: week 4 and week 10
[5] = assay type: in vivo, mice; conditions: low dose 25 mg/kg/day in diet
[6] = test system: Caco-2 cells; experiment: Caco-2 permeability study (Example 6B)
[7] = molecular target: mouse PLA2 IB enzyme (Mus musculus, UniProt Q9Z0Y2); conditions: pyrene substrate release from vesicles (Singer, Ghomashchi et al. 2002); read-out: IC50 versus the mouse PLA2 IB enzyme; cited from earlier work
Chain of mouse PLA2 IB enzyme (Q9Z0Y2 23-146): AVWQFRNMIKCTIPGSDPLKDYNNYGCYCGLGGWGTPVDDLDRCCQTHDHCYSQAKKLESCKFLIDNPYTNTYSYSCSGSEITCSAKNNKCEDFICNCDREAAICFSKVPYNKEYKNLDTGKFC

[8] = assay type: in vivo, mice; conditions: 10 weeks
[9] = Stability at low pH; assay type: physicochemical
[10] = Pharmokinetic study, bioavailability (Example 6C); assay type: in vivo, mice
Experimental: This example characterized ILY-4001 [2-(3-(2-amino-2-oxoacetyl)-1-(biphenyl-2-ylmethyl)-2-methyl-1H-indol-4-yloxy)acetic acid], alternatively referred to herein as methyl indoxam, with respect to activity, as determined by IC50 assay (Example 6A), with respect to cell absorption, as determined by in-vitro Caco-2 assay (Example 6B) and with respect to bioavailability, as determined using in-vivo mice studies (Example 6C).
Bioavailability was calculated as a ratio of AUC-oral/AUC-intravenous (IV). To determine this ratio, a first set of subject animals were given a measured intravenous (IV) dose of ILY-4001, followed by a determination of ILY-4001 levels in the blood at various time points after administration (e.g., 5 minutes through 24 hours). Another second set of animals was similarly dosed using oral administration, with blood levels of ILY-4001 determined at various time points after administration (e.g., 30 minutes through 24 hours). The level of ILY-4001 in systemic circulation were determined by generally accepted methods (for example as described in Evans, G., A Handbook of Bioanalysis and Drug Metabolism. Boca Raton, CRC Press (2004)). Specifically, […]/mass spectrometry/mass spectrometry (LC/MS/MS) analytical methods were used to quantitate plasma concentrations of ILY-4001 after oral and intravenous administration. […]

[11] = test system: Caco-2 cells

Chain of porcine pancreatic secreted PLA2 (pps PLA2) (P00592 23-146): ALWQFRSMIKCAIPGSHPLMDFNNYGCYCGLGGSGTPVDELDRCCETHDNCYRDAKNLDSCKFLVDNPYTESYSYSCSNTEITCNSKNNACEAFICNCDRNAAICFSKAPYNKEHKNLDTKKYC

Compound: Cc1c(CC(N)=O)c2c(OCC(=O)O)cccc2n1Cc1ccccc1-c1ccccc1
IC50 [1]: 0.014 µM
IC50 [2]: 4.09 µM

Compound: Cc1c(C(=O)C(N)=O)c2c(OCC(=O)O)cccc2n1Cc1ccccc1-c1ccccc1 [ILY-4001, 2-(3-(2-amino-2-oxoacetyl)-1-(biphenyl-2-ylmethyl)-2-methyl-1H-indol-4-yloxy)acetic acid]
IC50 [3]: ~200 nM
body weight gain modulation relative to PLA2 (−/−) mice ([4]; 25 mg/kg/d (low dose) in diet, ten weeks): comparable to that achieved in the PLA2 (−/−) mice
body weight gain modulation relative to PLA2 (−/−) mice ([4]; 25 mg/kg/d in diet, four weeks): approaching that achieved in the PLA2 (−/−) mice
body weight gain compared to wild-type control group ([4]; 25 mg/kg/d in diet): significantly reduced body weight gains
body weight gain modulation relative to PLA2 (−/−) mice ([4]; 90 mg/kg/d in diet, four weeks): approaching that achieved in the PLA2 (−/−) mice
body weight gain compared to wild-type control group ([4]; 90 mg/kg/d in diet): significantly reduced body weight gains
fasting glucose levels ([5]; week four): moderately beneficial effect
fasting glucose levels ([5]; week ten): a beneficial effect was not observed
apparent permeability (Papp) ([6]; 50 ug/ml in apical well, sampled basolateral, Caco-2 monolayer): around 1.66×10^−7 cm/s
absorption from the GI lumen ([6]; based on Caco-2 assays and pharmokinetic studies): relatively low absorption
IC50 [7]: ~150 nM
plasma level of cholesterol ([8]; high dose 90 mg/kg/day in diet): substantially reduced
plasma level of triglycerides ([8]; high dose 90 mg/kg/day in diet): substantially reduced
plasma level of cholesterol ([8]; low dose 25 mg/kg/day in diet): substantially reduced
plasma level of triglycerides ([8]; low dose 25 mg/kg/day in diet): substantially reduced
stability at low pH [9]: stable at low pH
bioavailability ([10]; mouse, plasma, oral, 30 mg/kg, read-out: % F (bioavailability)): 28%
level of non-absorption from the GI tract into systemic circulation ([10]; oral 30 mg/kg): ~72%

Compound: Cc1c(C(=O)C(N)=O)c2c(CCC(=O)O)cccc2n1Cc1ccccc1
IC50 [2]: > 100 µM

Compound: Cc1c(CC(=O)NN)c2cc(OCCCC(=O)O)ccc2n1Cc1ccccc1
IC50 (μM) pps PLA2 [1]: no activity
IC50 (μM) hps PLA2 [2]: no activity

apparent permeability (Papp) [11]: around 2.82×10^−7+/−0.37×10^−7 cm/s
Compound: Lucifer Yellow

Compound: Cc1c(CC(N)=O)c2c(OCC(=O)O)cccc2n1Cc1cccc(Cl)c1
IC50 [1]: 0.02 µM
IC50 [2]: 1.2 µM

Compound: Cc1c(C(=O)C(N)=O)c2c(/C=C/C(=O)O)cccc2n1Cc1ccccc1
IC50 [2]: > 100 µM
